# Experimental data as given in publication PMC2744931, “Glutamate Uptake Triggers Transporter-Mediated GABA Release from Astrocytes” (PLoS ONE, 2009).
# Like-named read-outs stand apart in the source and are kept apart here.
# Assays:
# [1] = system: acute rat hippocampal slices; assay: [3H]GABA efflux from acute rat hippocampal slices (microvolume superfusion); format: cell-based; settings: for effect on Glu-induced GABA release in hippocampal slices: DL-AP5 50 µM, CNQX 10 µM, (S)-MCPG 500 µM applied as Glu receptor antagonists
# Experimental: Radiolabeling of 400 µm thick acute slices was conducted in 200 µl of ACSF in a glass tube. […] To preferentially label the cytosolic over the vesicular pools, incubation of slices at 30°C lasted for 10 min [54]. Slices were washed with fresh ACSF containing GABA-T inhibitors, thereafter placed in a custom-built closed micro-volume (50 µl) chamber secured in a water bath thermostated at 30°C [55]. […] The superfusate was collected in 0.5 ml fractions. After washing for 10 min, 10 fractions were collected to define the basal release of radioactivity (‘pre-stimulus’). At this point, the hippocampal slice was exposed to 100 µM Glu for a period of 10 min (‘drug application’), followed by further 10 min of washing with ACSF (‘washout’). Radioactivity of each 0.5 ml fraction counted in 3 ml HiSafe 3 scintillation mixture was expressed as the percentage of the actual radioactivity content of the slice (fractional release). Fractional release data from individual slices were normalized to a first order exponential curve (obtained by fitting the pre-stimulus and the last 3 washout values). Normalized percent efflux data from fractions of ‘pre-stimulus’ (1–10 min) versus ‘drug application’ (11–20 min) periods were averaged and compared by statistical analysis.
# [2] = system: GABA transport in rat cerebrocortical NPMV (GAT-2/3); assay: [3H]GABA uptake in rat cerebrocortical native plasma membrane vesicles (NPMV) in the presence of 100 µM NNC-711; format: biochemical; settings: for modulation of the effect of Glu on GABA transport / cytosolic GABA level in rat cortical NPMV: 100 µM NNC-711 present; for effect on GABA transport in rat cortical NPMV: 10 min preincubation, 100 µM NNC-711 (Figure 1B)
# Experimental: Cerebral cortices of 4–6 weeks old male Wistar rats (Toxicoop, Hungary) and frozen human brain tissue samples (Hungarian Brain Tissue Bank, Budapest) were used to prepare NPMV fractions, that contain numerous membrane vesicles of different sizes and shapes, a few intact synaptosomes and free mitochondria. […] Afterward, preincubated solution was incubated with [^3H]GABA (10 nM, Amersham) and GABA (90 nM, Sigma) for 1 min. In case of [^3H]β-alanine uptake, incubation solution contained 100 nM [^3H]β-alanine (Amersham) and 900 nM β-alanine (Sigma). After the incubation, samples were immediately filtered through glass fiber filters and washed twice with ice-cold HEPES buffer. The [^3H]GABA level inside the plasma membrane vesicles was determined by liquid scintillation method. Although this method is generally used to measure GABA uptake, we applied it to follow GABA release due to the simplicity and reliability of the assay. We also determined GABA release by preloading [^3H]GABA into NPMV vesicles and measuring the [^3H]GABA level in the intracellular and extracellular milieu. […] Non-specific uptake was determined in the presence of 1 mM guvacine. The radioactivity of samples was counted in HiSafe 3 (Perkin Elmer) scintillation mixture.
# GAT-2 = system: GAT-2; parameters: method as in Borden,L.A. (1996) Neurochem Int. 4: 335–356; settings: ref Borden,L.A. (1996) Neurochem Int. 4: 335–356; cited from earlier work
# GAT-3 = system: GAT-3; parameters: method as in Borden,L.A. (1996) Neurochem Int. 4: 335–356; settings: ref Borden,L.A. (1996) Neurochem Int. 4: 335–356; cited from earlier work
# GAT-1 = system: GAT-1; parameters: method as in Borden,L.A. (1996) Neurochem Int. 4: 335–356; settings: ref Borden,L.A. (1996) Neurochem Int. 4: 335–356; cited from earlier work
# BGT = system: BGT; parameters: method as in Borden,L.A. (1996) Neurochem Int. 4: 335–356; settings: ref Borden,L.A. (1996) Neurochem Int. 4: 335–356; cited from earlier work
# [3] = GABA transport in the presence of 100 µM NNC-711, present study, read-out: IC50 Rat cerebrocortical NPMV
# [4] = rat cortical NPMV, in the presence of NNC-711, read-out: IC50, effect on GABA transport
molecule,measurement,setting,value
"6-cyano-7-nitroquinoxaline-2,3-dione [CNQX]",effect on Glu-induced GABA release in hippocampal slices,[1],partially inhibited
"NC(CCCP(=O)(O)O)C(=O)O (racemic) [DL-AP5, DL-2-amino-5-phosphonopentanoic acid]",effect on Glu-induced GABA release in hippocampal slices,[1],partially inhibited
"C[N+]1(C)CCc2cc3c(cc2[C@H]1[C@@H]1OC(=O)c2c1ccc1c2OCO1)OCO3.[I-] [(1S,9R)-bicuculline methiodide]",modulation of the effect of Glu on GABA transport / cytosolic GABA level in rat cortical NPMV,[2],did not modulate the effect of Glu on the cytosolic GABA level
NC[C@H](CC(=O)O)c1ccc(Cl)cc1 [(R)-baclofen],modulation of the effect of Glu on GABA transport / cytosolic GABA level in rat cortical NPMV,[2],did not modulate the effect of Glu on the cytosolic GABA level
"C[C@@](N)(C(=O)O)c1ccc(C(=O)O)cc1 [(S)-MCPG, (S)-α-methyl-4-carboxyphenylglycine]",effect on Glu-induced GABA release in hippocampal slices,[1],partially inhibited
C[N+](C)(C)CC(=O)O [Betaine],IC50,GAT-2,> 1000 µM
same,IC50,[2]; [3],> 1000 µM
same,IC50,GAT-3,> 1000 µM
same,IC50,GAT-1,> 1000 µM
same,IC50,BGT,173 µM
[Cd+2] [Cd^2+],elevation of [GABA]o ([3H]GABA efflux),"[1]; Glu-induced release in the presence of 50 µM Cd2+ salt in the superfusion, n = 3",143±10 % of pre-stimulus control
N[C@H](CC(=O)O)C(=O)O [D-Asp],effect on GABA transport in rat cortical NPMV,[2],able to affect GABA transport
N[C@H](CCC(=O)O)C(=O)O [D-Glu],effect on GABA transport in rat cortical NPMV,[2],able to affect GABA transport
CC(C)C[C@@H](N)C(=O)O [D-Leu],IC50,[2]; [4],> 1000 µM
N[C@H](CO)C(=O)O [D-Ser],IC50,[2]; [4],> 1000 µM
"CC(C)[C@H]1CN[C@H](C(=O)O)[C@H]1CC(=O)O [DHK, dihydrokainic acid]",modulation of the effect of Glu on GABA transport / cytosolic GABA level in rat cortical NPMV,[2],significantly reduced
NCCS(=O)O [Hypotaurine],IC50,GAT-2,52 µM
same,IC50,[2]; [3],20 ± 0.4 µM
same,IC50,GAT-3,73 µM
same,IC50,GAT-1,1010 µM
same,IC50,BGT,536 µM
N[C@@H](CC(=O)O)C(=O)O [L-Asp],effect on GABA transport in rat cortical NPMV,[2],able to affect GABA transport
CC(C)C[C@H](N)C(=O)O [L-Leu],IC50,[2]; [4],> 1000 µM
N[C@@H](CO)C(=O)O [L-Ser],IC50,[2]; [4],> 1000 µM
O=C(O)C1CCCNC1 (stereo not drawn) [Nipecotic acid],IC50,[2]; [3],28 ± 0.5 µM
O=C(O)C1CCCN(CCC=C(c2ccccc2)c2ccccc2)C1 (stereo not drawn) [SKF89976A],IC50,GAT-2,550 µM
same,IC50,[2]; [3],372 ± 9 µM
same,IC50,GAT-3,4390 µM
same,IC50,GAT-1,0.64 µM
same,IC50,BGT,7210 µM
NCCS(=O)(=O)O [Taurine],IC50,GAT-2,1270 µM
same,IC50,[2]; [3],400 ± 7 µM
same,IC50,GAT-3,2860 µM
same,IC50,GAT-1,> 1000 µM
same,IC50,BGT,> 1000 µM
N[C@@H](CS(=O)(=O)O)C(=O)O [cysteic acid],effect on GABA transport in rat cortical NPMV,[2],able to affect GABA transport
NCCc1ccc(O)c(O)c1 [dopamine],IC50,[2]; [4],> 1000 µM
NCCc1c[nH]c2ccc(O)cc12 [serotonin],IC50,[2]; [4],> 1000 µM
O=C(O)CCC(=O)O [succinate],IC50,"[2]; read-out: IC50, effect on GABA transport",> 1000 µM
NCCC(=O)O [β-alanine],IC50,GAT-2,66 µM
same,IC50,[2]; [3],26 ± 4 µM
same,IC50,GAT-3,110 µM
same,IC50,GAT-1,2920 µM
same,IC50,BGT,1100 µM
penicillin,IC50,[2]; [4],> 1000 µM
